Measured values taken from patent US7833685B2, “Coloring compound and yellow toner containing the coloring compound” (Canon Kabushiki Kaisha, priority 2006, dated 2010).

What was measured:
[1] = Evaluation of coloring compound for its solubility in a styrene monomer; type: physicochemical; details: in a styrene monomer at 25° C.
Experimental: <Evaluation of Coloring Compound for its Solubility>
A coloring compound was tested for its solubility in a styrene monomer at a temperature of 25° C. of dissolution.
The coloring compound was judged to have sufficient solubility when the percentage by which the coloring compound dissolved in the styrene monomer was 1 mass % or more.

[2] = Evaluation of coloring compound for lightfastness (sun tester irradiation, color difference ΔE); type: physicochemical; details: ΔE after sun tester irradiation, 765 w/m^2, 50° C., 20 hours, on CLC color copy paper
Experimental: <Evaluation of Coloring Compound for Lightfastness>
A coloring compound was dissolved in a mixed liquid prepared by mixing tetrahydrofuran and cyclohexanone at a volume ratio of 1:1, whereby a 0.04-mol/l coloring compound solution was prepared. The coloring compound solution was filtrated through a filter (pore diameter: 0.2 μm). The coloring compound solution after the filtration was applied to CLC color copy paper (manufactured by Canon Inc.) by a bar coat method (Bar No. 3), and the resultant test paper was dried with air for one whole day and night. Next, the test paper was tested by being irradiated with light from a sun tester (XF-180CPS, manufactured by Shimadzu Corporation) at an illuminance of 765 w/m^2 and a temperature of 50° C. for an irradiation time of 20 hours. The test paper was analyzed with a spectrophotometer (SPECTROLINO, manufactured by Gretag Macbeth) before and after the irradiation test. The chromaticities (L*, a*, b*) of the test paper in an L*a*b* colorimetric system were measured before and after the irradiation test. A color difference (ΔE) was calculated from the following equation.
The coloring compound was evaluated for its lightfastness as described below. • A: ΔE is less than 15. • B: ΔE is 15 or more and less than 30. • C: ΔE is 30 or more.
The coloring compound was judged to have good lightfastness when ΔE was less than 30.

| Lightfastness [2] | Compound | Solubility [1] |
| --- | --- | --- |
| C (ΔE is 30 or more) | CCCCn1c(O)c(N=Nc2ccccc2[N+](=O)[O-])c(C)c(C#N)c1=O [E8, reference compound] | C (The percentage by which the coloring compound dissolves in the styrene monomer is less than 1 mass %) |
| C (ΔE is 30 or more) | CCCCn1c(O)c(N=Nc2cccc(C)c2)c(C)c(C#N)c1=O [E7, reference compound] | B (The percentage by which the coloring compound dissolves in the styrene monomer is 1 mass % or more and less than 10 mass %) |
| C (ΔE is 30 or more) | CCCCC(CC)CN(CC(CC)CCCC)C(=O)c1ccc(N=Nc2c(C)c(C#N)c(=O)n(CC)c2O)cc1 (centres unmarked) [E6, reference compound] | A (The percentage by which the coloring compound dissolves in the styrene monomer is 10 mass % or more) |
| A (ΔE is less than 15) | CCCCC(CC)CN(CC(CC)CCCC)C(=O)c1cccc(N=Nc2c(O)[nH]c(=O)c(C#N)c2C)c1 (centres unmarked) [E9, reference compound] | C (The percentage by which the coloring compound dissolves in the styrene monomer is less than 1 mass %) |
| C (ΔE is 30 or more) | CCCCC(CC)CN(CC(CC)CCCC)C(=O)c1ccccc1N=Nc1c(C)c(C#N)c(=O)n(CC)c1O (centres unmarked) [E11, reference compound] | A (The percentage by which the coloring compound dissolves in the styrene monomer is 10 mass % or more) |
| C (ΔE is 30 or more) | Cc1c(N=Nc2ccc(N(C)C)cc2)c(O)n(CCCl)c(=O)c1C#N [E4, reference compound] | B (The percentage by which the coloring compound dissolves in the styrene monomer is 1 mass % or more and less than 10 mass %) |
| C (ΔE is 30 or more) | CCCCn1c(O)c(N=Nc2ccc(C(=O)OC)cc2)c(C)c(C#N)c1=O [E5, reference compound] | C (The percentage by which the coloring compound dissolves in the styrene monomer is less than 1 mass %) |
| C (ΔE is 30 or more) | CCCCn1c(O)c(N=Nc2ccc(Cl)cc2)c(C)c(C#N)c1=O [E2, reference compound] | B (The percentage by which the coloring compound dissolves in the styrene monomer is 1 mass % or more and less than 10 mass %) |
| C (ΔE is 30 or more) | CCCCC(CC)CN(CC(CC)CCCC)C(=O)c1ccc(N=Nc2c(O)[nH]c(=O)c(C#N)c2C)cc1 (centres unmarked) [E10, reference compound] | A (The percentage by which the coloring compound dissolves in the styrene monomer is 10 mass % or more) |
| C (ΔE is 30 or more) | CCCCC(CC)CNS(=O)(=O)c1ccc(N=Nc2c(C)c(C#N)c(=O)n(CCCC)c2O)cc1 (centres unmarked) [E3, reference compound] | A (The percentage by which the coloring compound dissolves in the styrene monomer is 10 mass % or more) |
| C (ΔE is 30 or more) | CCCCc1ccc(N=Nc2c(O)[nH]c(=O)c(C#N)c2C)cc1 [E1, reference compound] | B (The percentage by which the coloring compound dissolves in the styrene monomer is 1 mass % or more and less than 10 mass %) |

More lines, now with the values behind:

| Compound | Lightfastness [2] | Solubility [1] |
| --- | --- | --- |
| CCCCCCN(CCCCCC)C(=O)c1ccccc1N=Nc1c(O)[nH]c(=O)c(C#N)c1C [D3] | A (ΔE is less than 15) | A (The percentage by which the coloring compound dissolves in the styrene monomer is 10 mass % or more) |
| CCCCC(CC)CN(CC(CC)CCCC)C(=O)c1ccccc1/N=N/c1c(O)[nH]c(=O)c(C#N)c1C (centres unmarked) [D1] | A (ΔE is less than 15) | A (The percentage by which the coloring compound dissolves in the styrene monomer is 10 mass % or more) |
| CCCCCCCCCCCCN(CCCCCCCCCCCC)C(=O)c1ccccc1N=Nc1c(O)[nH]c(=O)c(C#N)c1C [D4] | A (ΔE is less than 15) | A (The percentage by which the coloring compound dissolves in the styrene monomer is 10 mass % or more) |
| CCCCc1c(N=Nc2ccc(C)cc2C(=O)OCC(CC)CCCC)c(O)[nH]c(=O)c1C#N (centres unmarked) [D6] | B (ΔE is 15 or more and less than 30) | B (The percentage by which the coloring compound dissolves in the styrene monomer is 1 mass % or more and less than 10 mass %) |
| CCCCCCCCc1ccc(OC(=O)c2ccccc2N=Nc2c(O)[nH]c(=O)c(C#N)c2C)cc1 [D8] | A (ΔE is less than 15) | B (The percentage by which the coloring compound dissolves in the styrene monomer is 1 mass % or more and less than 10 mass %) |
| Cc1c(N=Nc2ccccc2C(=O)N(Cc2ccccc2)Cc2ccccc2)c(O)[nH]c(=O)c1C#N [D11] | A (ΔE is less than 15) | B (The percentage by which the coloring compound dissolves in the styrene monomer is 1 mass % or more and less than 10 mass %) |
| CCCCC(CC)CN(CC(CC)CCCC)C(=O)c1ccccc1N=Nc1c(C)cc(=O)[nH]c1O (centres unmarked) [D7] | B (ΔE is 15 or more and less than 30) | B (The percentage by which the coloring compound dissolves in the styrene monomer is 1 mass % or more and less than 10 mass %) |
| CCCCC(CC)CN(CC(CC)CCCC)C(=O)c1ccccc1N=Nc1c(O)[nH]c(=O)c(C#N)c1-c1ccccc1 (centres unmarked) [D2] | A (ΔE is less than 15) | A (The percentage by which the coloring compound dissolves in the styrene monomer is 10 mass % or more) |
| Cc1c(N=Nc2ccccc2C(=O)N(c2ccccc2)c2ccccc2)c(O)[nH]c(=O)c1C#N [D12] | A (ΔE is less than 15) | B (The percentage by which the coloring compound dissolves in the styrene monomer is 1 mass % or more and less than 10 mass %) |
| CCCCc1c(N=Nc2ccccc2C(=O)NCC(CC)CCCC)c(O)[nH]c(=O)c1C#N (centres unmarked) [D15] | A (ΔE is less than 15) | B (The percentage by which the coloring compound dissolves in the styrene monomer is 1 mass % or more and less than 10 mass %) |
| CCCCc1c(N=Nc2ccccc2C(=O)N2CCC(CCC)CC2)c(O)[nH]c(=O)c1C#N [D16] | A (ΔE is less than 15) | B (The percentage by which the coloring compound dissolves in the styrene monomer is 1 mass % or more and less than 10 mass %) |
| CCCCc1c(N=Nc2ccc(OC)cc2C(=O)OC(c2ccccc2)c2ccccc2)c(O)[nH]c(=O)c1C#N [D10] | B (ΔE is 15 or more and less than 30) | B (The percentage by which the coloring compound dissolves in the styrene monomer is 1 mass % or more and less than 10 mass %) |
| CCCCCCCCCCCCN(CCCCCCCCCCCC)C(=O)c1cc(Cl)ccc1N=Nc1c(O)[nH]c(=O)c(C#N)c1C [D5] | B (ΔE is 15 or more and less than 30) | A (The percentage by which the coloring compound dissolves in the styrene monomer is 10 mass % or more) |
| CCCCC(CC)CN(CC(CC)CCCC)C(=O)c1ccccc1N=Nc1c(O)[nH]c(=O)c(C(N)=O)c1C (centres unmarked) [D14] | B (ΔE is 15 or more and less than 30) | B (The percentage by which the coloring compound dissolves in the styrene monomer is 1 mass % or more and less than 10 mass %) |
